Data from patent publication US6060304A, “Method of producing conjugated fatty acids” (Wisconsin Alumni Research Foundation, priority 1998, dated 2000).

Columns and labels:
[1] = tested on: linoleate isomerase of L. reuteri PYR8; assay: Substrates tested with cells of L. reuteri PYR8, product analysed by GC; format: biochemical, Lactobacillus reuteri PYR8 (ATCC 55739); settings: for Major Products (putative) of the linoleate isomerase: 0.2 mg substrate reacted with 20 mg PYR8 cells, GC; for Activity of the organism / consumption relative to other substrates: effect of extra double bonds at position 6 and/or 15; for Activity as substrate of the Lactobacillus: unsaturated fatty acids lacking double bonds at both positions 9 and 12
Description: ^a Each substrate (0.2 mg) was reacted with the cells (20 mg) of L.
reuteri PYR8, and product was analyzed by GC, as described in methods.
Fatty acids were extracted with chloroform:methanol (2:1) and 4% KCl. Hexadecanoic acid (HDA) was added as an internal standard. […] Fatty acid peaks were separated with a fused silica capillary column, 60 m by […] I.D. with a 0.25 μm film thickness (Supelco Park, Bellefonte, Pa.).

[2] = tested on: linoleate isomerase of L. reuteri PYR8; settings: for Rate of converting: 36-hour PYR8 cells
Description: Fatty acids were extracted with chloroform:methanol (2:1) and 4% KCl. Hexadecanoic acid (HDA) was added as an internal standard. The extraction mix was centrifuged at 2000 g for 5 minutes, then the chloroform fraction containing the fatty acids (bottom fraction) was removed and dried down by nitrogen gas. The fatty acids were suspended in 4% HCl in anhydrous methanol, and were methylated in a 60° C. water bath for 20 minutes. Finally, drops of double distilled water (DDW) were added to the methylation tube and hexane was used to re-extract the fatty acid. After washing twice with DDW and dehydrating by sodium sulfate, 1-2 μl of the hexane fraction was injected into a model 5890 series II gas chromatograph fitted with a model 3396A integrator (Hewlett-Packard Company, Avondale, Pa.) for fatty acid analysis. Fatty acid peaks were separated with a fused silica capillary column, 60 m by […] I.D. with a 0.25 μm film thickness (Supelco Park, Bellefonte, Pa.).
Thirty-six-hour cultures were diluted in 0.1M Tris-HCl (pH 8.55) buffer to 1:10, 1:15, 1:20 (w/v). Five ml of each suspension were reacted with 2.0 mg of linoleic acid for 1, 2, or 3 hours at 12° C. At 1:15, five ml were incubated with 1.0 mg, 1.5 mg, 2.0 mg and 3.0 mg of alpha-linolenic acid for 1 hour, or with 2.0 mg of gamma-linolenic acid for 1, 2, 3, 4, or 24 hours at 4° C. Fatty acids were extracted with chloroform:methanol and assayed by the GC method.

[3] = tested on: mammary cancer; settings: rodents; cited from earlier work
[4] = tested on: carcinogen-induced rat mammary tumors; settings: cited from earlier work
[5] = tested on: atherosclerosis; settings: rabbits and hamsters; cited from earlier work
[6] = mouse, rat and chick models; cited from earlier work
[7] = rabbits fed an atherogenic diet; cited from earlier work
[8] = chicks, mice and rats; cited from earlier work
[9] = tested on: epidermal carcinogenesis and forestomach neoplasia; settings: mice; cited from earlier work

Compound | Major Products (putative) of the linoleate isomerase [1] | Rate of converting [2] | Activity as substrate of the Lactobacillus [1] | further results
CCCCC/C=C\C/C=C\C/C=C\CCCCC(=O)O [Gamma-linolenic acid] | cis6, cis9, trans11 | less than 0.25 mg/hour/gram cells | – | Activity of the organism / consumption relative to other substrates [1]: reduced; Conversion to cis-6, cis-9, trans-11 isomer in 24 hours ([2]; dilution 1:15, 2.0 mg substrate, 4° C.): unable to convert
CCCCC/C=C\C/C=C\CCCCCCCC(=O)O [Linoleic acid] | cis9, trans11 isomer | 3.2 mg/hour/gram cells | – | Effect on mammary cancer [3]: associated with enhancing mammary cancer
CC/C=C\C/C=C\C/C=C\CCCCCCCC(=O)O [Alpha-linolenic acid] | cis9, trans11, cis15 | 8.0 mg/hour/gram cells | – | Activity of the organism / consumption relative to other substrates [1]: promoted; Amount of substrate converted in one hour ([2]; dilution 1:15, five ml, 4° C.): 2.5 mg
Octadecanoic acid | None | – | Inactive | –
Conjugated linoleic acid [CLA] | – | – | – | Inhibition of carcinogen-induced mammary tumors [4]: effective inhibitor; Inhibition of atherosclerosis [5]: inhibits atherosclerosis; Body fat [6]: reduces body fat; Ratio of LDL-cholesterol to HDL-cholesterol [7]: can decrease; Prevention of adverse effects caused by immune stimulation [8]: can prevent adverse effects; Inhibition of epidermal carcinogenesis and forestomach neoplasia [9]: effective inhibitor
CCCCCCCC/C=C\CCCCCCCC(=O)O [Oleic acid] | None | – | Inactive | –
CCCCC/C=C\C/C=C\C/C=C\C/C=C\CCCC(=O)O [Arachidonic acid] | None | – | Inactive | –
